What was measured:
Type in all cases: biochemical
B-Raf = molecular target: T1, B-Raf (Homo sapiens, UniProt P15056); experiment: AlphaScreen kinase assay, B-Raf; settings: read-out: IC50, activity toward kinase B-Raf
T1 construct: purchased Upstate Biotechnology

B-Raf V600E = molecular target: T2, B-Raf V600E (Homo sapiens, UniProt P15056, V600E); experiment: AlphaScreen kinase assay, B-Raf V600E; settings: read-out: IC50, activity toward kinase B-Raf V600E
T2 construct: P4254. pFastBacBD-CDC37 BRAF D437-K722-X, V600E; His6 with pFastBac HT leader (TEV site) (N); made in house; host or cells: Sf9 (baculovirus; chaperone CDC37 co-expressed)
T2 sequence (P15056 with tags, fused parts or gaps V600E): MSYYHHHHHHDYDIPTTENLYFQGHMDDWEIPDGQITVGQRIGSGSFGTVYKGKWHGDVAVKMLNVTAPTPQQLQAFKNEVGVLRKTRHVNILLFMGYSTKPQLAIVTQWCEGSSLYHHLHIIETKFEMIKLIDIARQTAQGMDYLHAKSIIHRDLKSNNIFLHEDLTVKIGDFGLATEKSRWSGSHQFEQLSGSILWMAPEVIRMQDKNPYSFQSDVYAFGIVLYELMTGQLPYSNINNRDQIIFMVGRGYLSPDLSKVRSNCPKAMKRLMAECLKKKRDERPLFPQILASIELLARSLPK

FGFR1 = molecular target: T3, FGFR1 (Homo sapiens, UniProt P11362, C488A/C584S); experiment: AlphaScreen kinase assay, FGFR1; settings: read-out: IC50, activity toward kinase FGFR
T3 construct: P1351.pET N6 BI-PTP FGFR A458-E765-X C488A, C584S; made in house; host or cells: E. coli (PTP1B co-expressed)
T3 sequence (P11362 458-765 C488A/C584S): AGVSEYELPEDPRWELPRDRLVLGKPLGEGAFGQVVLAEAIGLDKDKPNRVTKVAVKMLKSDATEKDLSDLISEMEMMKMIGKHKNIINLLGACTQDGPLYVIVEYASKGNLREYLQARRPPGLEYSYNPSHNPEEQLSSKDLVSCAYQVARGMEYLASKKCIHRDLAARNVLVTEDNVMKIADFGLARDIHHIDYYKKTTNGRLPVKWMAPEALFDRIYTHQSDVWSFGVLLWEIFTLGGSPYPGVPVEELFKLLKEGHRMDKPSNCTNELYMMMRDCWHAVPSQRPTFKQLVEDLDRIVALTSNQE

Flt1 = molecular target: T4, Flt1 (Homo sapiens, UniProt P17948); experiment: AlphaScreen kinase assay, Flt1; settings: read-out: IC50, activity toward kinase Flt1
T4 construct: P1826.pETN6 BI-PTP FLT1 M799-D1165-X WT; His6 (N); made in house; host or cells: E. coli (PTP1B co-expressed)
T4 sequence (P17948 with tags, fused parts or gaps): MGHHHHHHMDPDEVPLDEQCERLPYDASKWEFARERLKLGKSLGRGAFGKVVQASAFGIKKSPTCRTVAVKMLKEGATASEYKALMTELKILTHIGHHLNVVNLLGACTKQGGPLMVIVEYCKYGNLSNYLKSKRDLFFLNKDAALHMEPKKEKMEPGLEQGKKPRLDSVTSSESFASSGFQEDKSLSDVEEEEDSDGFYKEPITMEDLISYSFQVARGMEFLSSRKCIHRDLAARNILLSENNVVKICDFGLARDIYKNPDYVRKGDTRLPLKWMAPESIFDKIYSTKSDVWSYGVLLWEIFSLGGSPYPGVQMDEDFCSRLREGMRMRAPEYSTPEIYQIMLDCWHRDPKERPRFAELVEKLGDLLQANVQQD

Fms = molecular target: T5, Fms (Homo sapiens, UniProt P07333); experiment: AlphaScreen kinase assay, Fms; settings: read-out: IC50, activity toward kinase Fms
T5 construct: purchased Upstate Biotechnology
T5 sequence (P07333 20-972): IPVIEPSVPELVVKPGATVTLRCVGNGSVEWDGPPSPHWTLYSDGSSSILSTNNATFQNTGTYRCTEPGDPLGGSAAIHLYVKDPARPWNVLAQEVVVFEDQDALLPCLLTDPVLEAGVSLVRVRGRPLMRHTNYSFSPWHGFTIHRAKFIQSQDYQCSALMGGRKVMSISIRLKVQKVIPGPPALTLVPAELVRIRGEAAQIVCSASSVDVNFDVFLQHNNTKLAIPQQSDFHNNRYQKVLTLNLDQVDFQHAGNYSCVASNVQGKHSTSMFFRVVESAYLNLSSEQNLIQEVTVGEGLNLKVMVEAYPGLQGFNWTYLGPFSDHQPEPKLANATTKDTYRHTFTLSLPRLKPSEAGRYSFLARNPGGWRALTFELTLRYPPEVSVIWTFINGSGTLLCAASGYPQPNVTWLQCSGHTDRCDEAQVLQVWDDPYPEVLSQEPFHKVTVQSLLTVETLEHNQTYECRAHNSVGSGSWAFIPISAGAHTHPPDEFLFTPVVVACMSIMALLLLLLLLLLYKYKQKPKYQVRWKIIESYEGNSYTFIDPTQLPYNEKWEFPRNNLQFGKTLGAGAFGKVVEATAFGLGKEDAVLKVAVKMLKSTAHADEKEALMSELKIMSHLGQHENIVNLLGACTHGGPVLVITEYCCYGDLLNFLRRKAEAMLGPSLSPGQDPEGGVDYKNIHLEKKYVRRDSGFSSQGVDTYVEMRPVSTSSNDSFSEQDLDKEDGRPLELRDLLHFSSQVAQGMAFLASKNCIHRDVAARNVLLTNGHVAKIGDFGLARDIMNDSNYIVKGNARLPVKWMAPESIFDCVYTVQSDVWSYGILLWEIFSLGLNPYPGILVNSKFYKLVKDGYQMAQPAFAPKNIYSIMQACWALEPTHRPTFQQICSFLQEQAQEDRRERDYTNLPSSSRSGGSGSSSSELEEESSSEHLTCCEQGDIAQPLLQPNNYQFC

Jnk1 = molecular target: T6, Jnk1 (Homo sapiens, UniProt P45983); experiment: AlphaScreen kinase assay, Jnk1; settings: read-out: IC50, activity toward kinase Jnk1
T6 construct: purchased Upstate Biotechnology
T6 sequence (P45983 whole entry): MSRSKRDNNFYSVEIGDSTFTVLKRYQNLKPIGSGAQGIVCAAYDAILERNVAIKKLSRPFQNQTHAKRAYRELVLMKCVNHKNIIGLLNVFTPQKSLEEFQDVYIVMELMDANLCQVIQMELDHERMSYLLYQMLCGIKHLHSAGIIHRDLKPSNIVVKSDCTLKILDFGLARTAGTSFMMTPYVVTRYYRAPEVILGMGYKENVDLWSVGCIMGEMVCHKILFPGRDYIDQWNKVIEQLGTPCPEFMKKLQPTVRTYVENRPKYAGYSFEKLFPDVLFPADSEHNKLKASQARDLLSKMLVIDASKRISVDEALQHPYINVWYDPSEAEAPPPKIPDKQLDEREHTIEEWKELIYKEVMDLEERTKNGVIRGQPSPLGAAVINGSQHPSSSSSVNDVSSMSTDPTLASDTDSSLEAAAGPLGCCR

Jnk2 = molecular target: T7, Jnk2 (Homo sapiens, UniProt P45984); experiment: AlphaScreen kinase assay, Jnk2; settings: read-out: IC50, activity toward kinase Jnk2
T7 construct: purchased Roche Protein Expression Group (Indianapolis, IN)
T7 sequence (P45984 whole entry): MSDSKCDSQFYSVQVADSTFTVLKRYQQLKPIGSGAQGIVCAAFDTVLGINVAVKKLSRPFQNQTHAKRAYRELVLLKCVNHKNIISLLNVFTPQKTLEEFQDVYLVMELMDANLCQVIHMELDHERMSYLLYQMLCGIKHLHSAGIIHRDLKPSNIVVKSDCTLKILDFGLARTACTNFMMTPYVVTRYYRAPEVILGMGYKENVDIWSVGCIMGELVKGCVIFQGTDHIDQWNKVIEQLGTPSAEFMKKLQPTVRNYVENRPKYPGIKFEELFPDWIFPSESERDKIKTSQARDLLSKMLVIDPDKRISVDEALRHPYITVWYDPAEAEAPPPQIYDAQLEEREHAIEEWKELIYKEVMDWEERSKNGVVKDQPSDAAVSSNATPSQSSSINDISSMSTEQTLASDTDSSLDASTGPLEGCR
Source text: AlphaScreen assay was used to screen additional kinases. The assay is similarly dependent on the phosphorylation of a peptide substrate. In this assay, an antibody that recognizes phosphorylated substrate is bound to an acceptor bead. The peptide substrate is attached to biotin, which binds to a donor head that contains streptavidin. Thus phosphorylated substrate is bound by antibody and streptavidin, bringing the donor and acceptor heads into close proximity when kinase is not inhibited. The donor produces singlet oxygen which results in emission from the acceptor when they are in close proximity. Conversely, when kinase is inhibited, the donor and acceptor beads are not associated and the emission from the acceptor is reduced.
AlphaScreen assays were done using compounds dissolved in DMSO to a concentration of 20 mM. The compounds were diluted accordingly to the desired final concentrations in each sample well, using 1:3 serial dilution for a total of 8 concentration points.

Jnk3 = molecular target: T8, Jnk3 (Homo sapiens, UniProt P53779); experiment: AlphaScreen kinase assay, Jnk3; settings: read-out: IC50, activity toward kinase Jnk3
T8 construct: purchased Upstate Biotechnology
T8 sequence (P53779 whole entry): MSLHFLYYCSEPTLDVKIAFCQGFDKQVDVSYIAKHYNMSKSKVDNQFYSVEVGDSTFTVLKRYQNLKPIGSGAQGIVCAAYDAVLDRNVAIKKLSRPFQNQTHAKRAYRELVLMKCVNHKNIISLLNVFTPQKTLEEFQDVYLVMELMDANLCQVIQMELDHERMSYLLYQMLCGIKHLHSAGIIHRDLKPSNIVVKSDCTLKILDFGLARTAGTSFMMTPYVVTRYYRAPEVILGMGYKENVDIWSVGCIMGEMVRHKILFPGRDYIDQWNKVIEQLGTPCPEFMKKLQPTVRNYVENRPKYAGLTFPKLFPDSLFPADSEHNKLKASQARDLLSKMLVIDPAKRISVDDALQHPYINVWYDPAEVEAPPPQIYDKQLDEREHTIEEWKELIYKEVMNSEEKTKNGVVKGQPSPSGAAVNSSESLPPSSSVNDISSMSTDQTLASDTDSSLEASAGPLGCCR

Kit = molecular target: T9, Kit (Homo sapiens, UniProt P10721); experiment: AlphaScreen kinase assay, Kit; settings: read-out: IC50, activity toward kinase Kit
T9 construct: P1332.N6 BI PTP KIT M552-K948-X COD; His6 (N); made in house; host or cells: E. coli (PTP1B co-expressed)
T9 sequence (P10721 with tags, fused parts or gaps): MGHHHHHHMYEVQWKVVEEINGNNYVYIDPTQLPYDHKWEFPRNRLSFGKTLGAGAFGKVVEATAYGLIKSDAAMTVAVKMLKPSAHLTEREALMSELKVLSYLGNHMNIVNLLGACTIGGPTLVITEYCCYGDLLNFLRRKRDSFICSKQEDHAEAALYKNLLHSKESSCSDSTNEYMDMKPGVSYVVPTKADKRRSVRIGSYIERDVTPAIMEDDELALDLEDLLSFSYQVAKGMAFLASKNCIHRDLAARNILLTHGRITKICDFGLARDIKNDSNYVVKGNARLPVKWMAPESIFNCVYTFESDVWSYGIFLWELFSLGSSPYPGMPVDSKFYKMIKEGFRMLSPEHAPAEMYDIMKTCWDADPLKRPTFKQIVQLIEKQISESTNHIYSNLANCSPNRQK

Measured: IC50

T1 sequence (P15056 whole entry): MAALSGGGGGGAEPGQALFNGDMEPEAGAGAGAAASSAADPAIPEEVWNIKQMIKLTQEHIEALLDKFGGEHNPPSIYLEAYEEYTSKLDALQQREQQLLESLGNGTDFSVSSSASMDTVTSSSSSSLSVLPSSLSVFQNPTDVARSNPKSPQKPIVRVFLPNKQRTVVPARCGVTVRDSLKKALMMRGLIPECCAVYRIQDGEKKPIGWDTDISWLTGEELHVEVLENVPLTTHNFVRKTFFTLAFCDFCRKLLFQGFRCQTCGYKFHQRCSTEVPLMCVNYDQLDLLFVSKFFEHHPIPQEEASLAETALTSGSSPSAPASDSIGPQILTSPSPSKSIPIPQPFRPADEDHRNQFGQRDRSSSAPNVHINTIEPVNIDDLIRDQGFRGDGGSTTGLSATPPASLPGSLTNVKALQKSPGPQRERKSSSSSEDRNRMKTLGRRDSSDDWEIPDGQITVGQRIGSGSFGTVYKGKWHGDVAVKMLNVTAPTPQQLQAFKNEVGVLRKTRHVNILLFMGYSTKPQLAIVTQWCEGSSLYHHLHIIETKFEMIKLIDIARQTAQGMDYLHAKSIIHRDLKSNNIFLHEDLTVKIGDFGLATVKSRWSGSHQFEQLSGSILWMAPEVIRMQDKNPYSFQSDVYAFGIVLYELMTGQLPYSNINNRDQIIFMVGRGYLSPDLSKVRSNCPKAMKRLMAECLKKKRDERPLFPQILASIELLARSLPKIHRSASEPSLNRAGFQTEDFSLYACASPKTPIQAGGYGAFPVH

CCCCNC(=O)Nc1ccc(F)c(C(=O)c2c[nH]c3ncc(-c4cccc(C(N)=O)c4)cc23)c1 [Compound P-1621, 3-{3-[5-(3-Butyl-ureido)-2-fluoro-benzoyl]-1H-pyrrolo[2,3-b]pyridin-5-yl}-benzamide]
not listed: Kit
≤ 10 µM: all other assays above

COCCNC(=O)Nc1cccc(C(=O)c2c[nH]c3ncc(-c4cccnc4)cc23)c1 [Compound P-1566, 1-(2-Methoxy-ethyl)-3-[3-(5-pyridin-3-yl-1H-pyrrolo[2,3-b]pyridine-3-carbonyl)-phenyl]-urea]
not listed: FGFR1
≤ 10 µM: all other assays above

CCCCNC(=O)Nc1ccc(F)c(C(=O)c2c[nH]c3ncc(OC)cc23)c1F [Compound P-1567, 1-Butyl-3-[2,4-difluoro-3-(5-methoxy-1H-pyrrolo[2,3-b]pyridine-3-carbonyl)-phenyl]-urea]
not listed: FGFR1
≤ 10 µM: all other assays above

O=C(Nc1ccccc1)Nc1cccc(C(=O)c2c[nH]c3ncc(-c4cccnc4)cc23)c1 [Compound P-1591, 1-Phenyl-3-[3-(5-pyridin-3-yl-1H-pyrrolo[2,3-b]pyridine-3-carbonyl)-phenyl]-urea]
≤ 10 µM: all assays above

NC(=O)Nc1ccc(F)c(C(=O)c2c[nH]c3ncc(Br)cc23)c1 [Compound P-1570, [3-(5-Bromo-1H-pyrrolo[2,3-b]pyridine-3-carbonyl)-4-fluoro-phenyl]-urea]
not listed: FGFR1 | Kit
≤ 10 µM: all other assays above

O=C(Nc1ccc(F)cc1)Nc1cccc(C(=O)c2c[nH]c3ncc(-c4cccnc4)cc23)c1 [Compound P-1748, 1-(4-Fluoro-phenyl)-3-[3-(5-pyridin-3-yl-1H-pyrrolo[2,3-b]pyridine-3-carbonyl)-phenyl]-urea]
not listed: FGFR1 | Flt1 | Kit
≤ 10 µM: all other assays above

CCCS(=O)(=O)Nc1ccc(F)c(C(=O)c2c[nH]c3ncc(-c4ccc(C(=O)N(C)C)c(C)c4)cc23)c1F [Compound P-2007]
not listed: FGFR1 | Flt1 | Kit
≤ 10 µM: all other assays above

Cc1noc(NC(=O)Nc2cccc(C(=O)c3c[nH]c4ncccc34)c2)c1C [Compound P-1767]
not listed: FGFR1 | Flt1
≤ 10 µM: all other assays above

O=C(Nc1cccc(C(=O)c2c[nH]c3ncc(-c4cccnc4)cc23)c1)Nc1ccc(F)c(F)c1 [Compound P-1724, 1-(3,4-Difluoro-phenyl)-3-[3-(5-pyridin-3-yl-1H-pyrrolo[2,3-b]pyridine-3-carbonyl)-phenyl]-urea]
not listed: FGFR1 | Flt1 | Kit
≤ 10 µM: all other assays above

Cc1ccc(NC(=O)Nc2cccc(C(=O)c3c[nH]c4ncc(-c5cccnc5)cc34)c2)cc1 [Compound P-1756, 1-[3-(5-Pyridin-3-yl-1H-pyrrolo[2,3-b]pyridine-3-carbonyl)-phenyl]-3-p-tolyl-urea]
not listed: FGFR1 | Flt1 | Kit
≤ 10 µM: all other assays above

CCCCCNC(=O)n1ccc2c(C(=O)c3c[nH]c4ncc(-c5cccnc5)cc34)cccc21 [Compound P-1702, 4-(5-Pyridin-3-yl-1H-pyrrolo[2,3-b]pyridine-3-carbonyl)-indole-1-carboxylic acid pentylamide]
not listed: FGFR1 | Flt1 | Kit
≤ 10 µM: all other assays above

Cc1ccccc1NC(=O)Nc1cccc(C(=O)c2c[nH]c3ncc(-c4cccnc4)cc23)c1 [Compound P-1759, 1-[3-(5-Pyridin-3-yl-1H-pyrrolo[2,3-b]pyridine-3-carbonyl)-phenyl]-3-o-tolyl-urea]
not listed: FGFR1 | Flt1 | Kit
≤ 10 µM: all other assays above

Cc1noc(NC(=O)Nc2cccc(C(=O)c3c[nH]c4ncc(Cl)cc34)c2)c1C [Compound P-1776, 1-[3-(5-Chloro-1H-pyrrolo[2,3-b]pyridine-3-carbonyl)-phenyl]-3-(3,4-dimethyl-isoxazol-5-yl)-urea]
not listed: FGFR1 | Flt1
≤ 10 µM: all other assays above

CCCCNC(=O)Nc1cccc(C(=O)c2c[nH]c3ncc(-c4cccnc4)cc23)c1Cl [Compound P-1828, 1-Butyl-3-[2-chloro-3-(5-pyridin-3-yl-1H-pyrrolo[2,3-b]pyridine-3-carbonyl)-phenyl]-urea]
not listed: FGFR1 | Flt1 | Kit
≤ 10 µM: all other assays above

Cc1ccccc1NC(=O)Nc1cccc(C(=O)c2c[nH]c3ncccc23)c1 [Compound P-1720, 1-[3-(1H-Pyrrolo[2,3-b]pyridine-3-carbonyl)-phenyl]-3-o-tolyl-urea]
not listed: FGFR1 | Flt1
≤ 10 µM: all other assays above

Cc1cccc(NC(=O)Nc2cccc(C(=O)c3c[nH]c4ncc(-c5cccnc5)cc34)c2)c1 [Compound P-1757, 1-[3-(5-Pyridin-3-yl-1H-pyrrolo[2,3-b]pyridine-3-carbonyl)-phenyl]-3-m-tolyl-urea]
not listed: FGFR1 | Flt1 | Kit
≤ 10 µM: all other assays above

CCCCNC(=O)n1ccc2c(C(=O)c3c[nH]c4ncc(-c5ccccc5)cc34)cccc21 [Compound P-1576, 4-(5-Phenyl-1H-pyrrolo[2,3-b]pyridine-3-carbonyl)-indole-1-carboxylic acid butylamide]
not listed: FGFR1
≤ 10 µM: all other assays above

NC(=O)Nc1ccc(F)c(C(=O)c2c[nH]c3ncc(-c4ccccc4)cc23)c1 [Compound P-1589, [4-Fluoro-3-(5-phenyl-1H-pyrrolo[2,3-b]pyridine-3-carbonyl)-phenyl]-urea]
not listed: Kit
≤ 10 µM: all other assays above

Source: patent US8415469B2, “Compounds and methods for kinase modulation, and indications therefor” (Plexxikon Inc., priority 2005, dated 2013)
